Assay results: PMC5267519, “Evaluation of a Novel Renewable Hepatic Cell Model for Prediction of Clinical CYP3A4 Induction Using a Correlation-Based Relative Induction Score Approach” (Drug Metabolism and Disposition, 2017)
Several values for one entry are separate records, joined by “and”; a condition that tells them apart may be missing. Identical values can stand only once. Like-named read-outs stand apart in the source and are kept apart here.

Key:
CYP3A4 [1] = conditions: for RIS Based on Enzyme Activity: RIS = (Emax × Cmax,ub)/(EC50 + Cmax,ub); for RIS values based on enzyme activity (range stated for group of compounds): range over named compounds and three lots
CYP3A4 mRNA [2] = test: Concentration-dependent CYP3A4 mRNA induction in HepatoCells; conditions: for CYP3A4 mRNA expression induction response (in words): three lots of HepatoCells, eight concentrations; for Emax / EC50: CYP3A4 mRNA fold increase, NI = no induction observed at tested concentration; for Emax: 3 consecutive days treatment, quinidine: only observed maximum fold induction; for RIS Based on mRNA: RIS = (Emax × Cmax,ub)/(EC50 + Cmax,ub); for EC50: human, nominal concentrations; for RIS Based on mRNA, Mean: mean of lots 2B, 3A, 3B; for RIS values based on CYP3A4 mRNA level (range stated for group of compounds): range over named compounds and three lots
Experimental: (§1) Cryopreserved HepatoCells were thawed quickly in a 37°C water bath and transferred to Corning Culture Medium for HepatoCells supplemented with 10% fetal bovine serum and Pen/Strep (plating medium). After the cryo-freezing media was removed by centrifugation at 150g for 10 minutes, the cell pellet was resuspended in plating media and cell count was performed with trypan blue. Cells were then seeded in a Corning BioCoat Collagen I–coated plate (500,000 cells/well in 24-well plate or 80,000 cells/well in 96-well plate), and plates were incubated in a 37°C incubator with 5% CO2. […] Cells were then returned to the incubator for overnight culture.
(§2) Stock solutions of test compounds were prepared by dissolving each compound in DMSO and serially diluting the solutions in DMSO. Final working solutions were freshly prepared daily by diluting the 1000× stock solutions in culture medium. Three lots of HepatoCells culture were treated with eight concentrations of test compounds. Both enzymatic activity (testosterone 6β hydroxylase activity) and mRNA expression were measured as endpoints using LC-MS/MS and real-time reverse-transcription polymerase chain reaction, respectively.

CYP3A4 [3] = conditions: for Predicted AUC change using HepatoCells (range of lots): three lots, mRNA or activity basis not given
Source text: The resulting fitting equation was used to calculate predicted in vivo AUC change for each compound. […] Prediction accuracy using HepatoCells was also compared with prediction accuracy using primary human hepatocytes.

CYP3A4 mRNA [4] = conditions: for RIS Based on mRNA, Mean: human
Experimental: as §1, §2

CYP3A4 [5] = conditions: cited from earlier work
CYP3A4 [6] = conditions: hepatocytes; cited from earlier work
CYP1A2 [7] = test: CYP1A2 induction response to prototypical inducer, enzyme activity, HepatoCells; conditions: human, probe phenacetin 100 µM
Experimental: as §1

CYP1A2 [8] = test: CYP1A2 induction response to prototypical inducer, enzyme activity, primary human hepatocytes; conditions: cryopreserved primary human hepatocytes, probe phenacetin 100 µM
[9] = Solubility at test concentrations in induction assay; format: physicochemical; conditions: at 33 μM and 100 μM
Experimental: Only curve fitting with correlation coefficient (R^2) > 0.85 is accepted. At high concentrations for some compounds, if toxicity or insolubility becomes obvious, such data are excluded from curve fitting. Following the same approach as described by [Zhang et al. (2014)] and [Fahmi and Ripp (2010)], for data sets that show no apparent plateau, the observed maximum fold increase is accepted as Emax to avoid extrapolating too much above the experimental values and EC50 is calculated accordingly from the fitting curve.

MRP2 = target: T1, MRP2 (Homo sapiens, UniProt Q92887); test: CDFDA staining of bile canaliculi in HepatoCells sandwich culture; format: cell-based; conditions: pretreatment with inhibitor
T1 construct: the functional efflux transporter MRP2 is expressed and localized at the apical surface of HepatoCells; host or cells: Corning HepatoCells, collagen/Matrigel sandwich culture
Experimental: On day 1, HepatoCells were plated on collagen-coated dishes. Four to six hours after seeding, cell monolayer was overlaid with Matrigel solution at 0.25 mg/mL (as described above). Daily medium change was performed from day 2 to day 4 using fresh Corning Culture Medium for HepatoCells. On day 5, the sandwich cultures were incubated with carboxy-dichlorofluorescein diacetate (CDFDA), a multidrug-resistant protein 2 (MRP2) substrate that is metabolized by cytosolic esterases. The fluorescent CDFDA metabolite accumulated in bile canalicular lumens was visualized using fluorescence microscopy.

[10] = three lots of HepatoCells, eight concentrations
[11] = Lot 2B HepatoCells, RIS calibration curve
[12] = Lot 3A HepatoCells, RIS calibration curve
[13] = Lot 3B HepatoCells, RIS calibration curve
[14] = clinical DDI, decrease in AUC of victim drug (midazolam or nonmidazolam), ref Zhang et al., 2014

T1 sequence (Q92887 whole entry): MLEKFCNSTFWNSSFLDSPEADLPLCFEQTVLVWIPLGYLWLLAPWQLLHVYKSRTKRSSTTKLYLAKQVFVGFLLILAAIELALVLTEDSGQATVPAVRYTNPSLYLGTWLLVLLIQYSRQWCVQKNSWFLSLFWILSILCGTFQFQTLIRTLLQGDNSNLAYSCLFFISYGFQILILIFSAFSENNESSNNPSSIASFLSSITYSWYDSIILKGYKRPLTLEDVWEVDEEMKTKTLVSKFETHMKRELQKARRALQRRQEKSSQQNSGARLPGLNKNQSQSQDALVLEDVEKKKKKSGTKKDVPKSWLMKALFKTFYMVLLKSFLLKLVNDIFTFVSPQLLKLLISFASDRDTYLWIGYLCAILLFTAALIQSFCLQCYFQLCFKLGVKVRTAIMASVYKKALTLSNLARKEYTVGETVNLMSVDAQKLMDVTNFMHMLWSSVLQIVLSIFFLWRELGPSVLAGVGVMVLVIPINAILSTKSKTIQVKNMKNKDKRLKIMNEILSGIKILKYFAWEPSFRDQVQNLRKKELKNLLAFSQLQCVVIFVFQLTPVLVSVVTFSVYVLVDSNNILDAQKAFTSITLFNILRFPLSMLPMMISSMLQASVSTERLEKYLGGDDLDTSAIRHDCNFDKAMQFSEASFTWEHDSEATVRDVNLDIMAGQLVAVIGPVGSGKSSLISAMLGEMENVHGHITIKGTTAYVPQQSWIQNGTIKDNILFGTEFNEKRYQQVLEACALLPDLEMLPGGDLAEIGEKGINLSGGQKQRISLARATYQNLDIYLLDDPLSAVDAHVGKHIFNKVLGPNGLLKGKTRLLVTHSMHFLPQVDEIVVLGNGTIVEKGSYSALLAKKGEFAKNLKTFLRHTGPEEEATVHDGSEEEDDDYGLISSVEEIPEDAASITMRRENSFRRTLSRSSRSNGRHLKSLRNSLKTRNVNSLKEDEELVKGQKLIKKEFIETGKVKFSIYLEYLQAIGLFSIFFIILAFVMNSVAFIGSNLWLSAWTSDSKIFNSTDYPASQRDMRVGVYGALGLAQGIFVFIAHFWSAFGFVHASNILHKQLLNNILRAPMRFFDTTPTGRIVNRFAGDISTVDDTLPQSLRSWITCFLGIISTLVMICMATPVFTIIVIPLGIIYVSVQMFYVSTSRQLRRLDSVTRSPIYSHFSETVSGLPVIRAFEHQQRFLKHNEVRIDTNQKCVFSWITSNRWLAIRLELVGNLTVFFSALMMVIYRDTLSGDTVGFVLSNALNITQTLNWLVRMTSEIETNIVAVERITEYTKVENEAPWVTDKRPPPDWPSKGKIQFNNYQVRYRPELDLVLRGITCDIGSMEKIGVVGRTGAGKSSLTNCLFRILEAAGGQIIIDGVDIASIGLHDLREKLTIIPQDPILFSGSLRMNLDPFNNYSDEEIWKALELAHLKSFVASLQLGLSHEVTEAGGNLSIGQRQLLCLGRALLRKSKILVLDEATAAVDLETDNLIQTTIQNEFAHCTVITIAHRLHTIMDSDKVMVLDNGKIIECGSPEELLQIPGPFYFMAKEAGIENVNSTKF

Compound	Emax (CYP3A4 mRNA [2]; Lot 2B HepatoCells)	Emax (CYP3A4 mRNA [2]; Lot 3A HepatoCells)	Emax (CYP3A4 mRNA [2]; Lot 3B HepatoCells)	Predicted % AUC Change Based on Activity (CYP3A4 [3]; [11])	Predicted % AUC Change Based on mRNA (CYP3A4 [3]; [11])	Predicted % AUC Change Based on Activity (CYP3A4 [3]; [12])	Predicted % AUC Change Based on mRNA (CYP3A4 [3]; [12])	Predicted % AUC Change Based on Activity (CYP3A4 [3]; [13])	Predicted % AUC Change Based on mRNA (CYP3A4 [3]; [13])	RIS Based on Enzyme Activity (CYP3A4 [1]; Lot 2B)	RIS Based on Enzyme Activity (CYP3A4 [1]; Lot 3A)	RIS Based on Enzyme Activity (CYP3A4 [1]; Lot 3B)	RIS Based on Enzyme Activity, Mean (CYP3A4 [1]; mean of lots 2B, 3A, 3B)	RIS Based on mRNA (CYP3A4 mRNA [2]; Lot 2B)	RIS Based on mRNA (CYP3A4 mRNA [2]; Lot 3A)	RIS Based on mRNA (CYP3A4 mRNA [2]; Lot 3B)	EC50 (CYP3A4 mRNA [2]; EC50, Lot 2B HepatoCells)	EC50 (CYP3A4 mRNA [2]; EC50, Lot 3A HepatoCells)	EC50 (CYP3A4 mRNA [2]; EC50, Lot 3B HepatoCells)	RIS Based on mRNA, Mean (CYP3A4 mRNA [2])	other results
C[C@H]1O[C@@H](O[C@H]2[C@@H](O)C[C@H](O[C@H]3[C@@H](O)C[C@H](O[C@H]4CC[C@@]5(C)[C@H](CC[C@@H]6[C@@H]5C[C@@H](O)[C@]5(C)[C@@H](C7=CC(=O)OC7)CC[C@]65O)C4)O[C@@H]3C)O[C@@H]2C)C[C@H](O)[C@@H]1O [Digoxin]																					CYP3A4 enzyme activity induction response (in words) (CYP3A4 [1]; [10]): no induction response; CYP3A4 mRNA expression induction response (in words) (CYP3A4 mRNA [2]): no induction response
Clc1ccccc1C(c1ccccc1)(c1ccccc1)n1ccnc1 [Clotrimazole]																					Predicted % AUC Change Based on Activity (CYP3A4 [3]): 0%; Predicted % AUC Change Based on mRNA (CYP3A4 [3]): 0.00%; CYP3A4 mRNA expression induction response (in words) (CYP3A4 mRNA [4]): induced an increase; RIS Based on mRNA, Mean (CYP3A4 mRNA [4]): 0.0044; CYP3A4 enzyme activity induction response (in words) (CYP3A4 [1]): did not increase; Observed % AUC Change (CYP3A4 [5]; human, in vivo): 9.7%; Emax, CYP3A4 enzyme activity (CYP3A4 [6]): 3.1- to 3.3 fold
CN(C/C=C/C#CC(C)(C)C)Cc1cccc2ccccc12 [Terbinafine]	20 Fold	24 Fold	21 Fold																		Predicted % AUC Change Based on Activity (CYP3A4 [3]): 29% and 15%; Predicted AUC change using enzyme activity data (range of lots) (CYP3A4 [3]): 15–29%; Predicted AUC change using mRNA data (range of lots) (CYP3A4 [3]): 8–19%; RIS Based on mRNA, Mean (CYP3A4 mRNA [4]): 0.19; RIS Based on Enzyme Activity, Mean (CYP3A4 [1]; human): 0.2; Observed % AUC Change (CYP3A4 [5]; human, in vivo): 25%
COc1ccc2[nH]c([S+]([O-])Cc3ncc(C)c(OC)c3C)nc2c1 (centres unmarked) [Omeprazole]	24 Fold	45 Fold	27 Fold	0.11%	1.7%	0.002%	0.14%	0.017%	0.35%	0.015	0.009	0.007	0.0103	0.069	0.073	0.079	13 µM	23 µM	13 µM	0.074	Predicted AUC change using HepatoCells (range of lots) (CYP3A4 [3]): 0.1–1.7%; RIS values based on enzyme activity (range stated for group of compounds) (CYP3A4 [1]): 0.0004–0.09; Observed % AUC Change (CYP3A4 [5]; [14]): −25%; RIS values based on CYP3A4 mRNA level (range stated for group of compounds) (CYP3A4 mRNA [2]): 0.0012–0.16; fold induction at 72 h, 50 µM (CYP1A2 [7]): 32.4; fold induction at 72 h, 50 µM (CYP1A2 [8]): 28.7
CCOC(=O)c1ncn2c1CN(C)C(=O)c1cc(F)ccc1-2 [Flumazenil]																					CYP3A4 enzyme activity induction response (in words) (CYP3A4 [1]; [10]): no induction response; CYP3A4 mRNA expression induction response (in words) (CYP3A4 mRNA [2]): no induction response
CN(Cc1cnc2nc(N)nc(N)c2n1)c1ccc(C(=O)N[C@@H](CCC(=O)O)C(=O)O)cc1 [Methotrexate]																					CYP3A4 enzyme activity induction response (in words) (CYP3A4 [1]; [10]): no induction response; CYP3A4 mRNA expression induction response (in words) (CYP3A4 mRNA [2]): no induction response
O=C1C(CC[S+]([O-])c2ccccc2)C(=O)N(c2ccccc2)N1c1ccccc1 (centres unmarked) [Sulfinpyrazone]	31 Fold	53 Fold	38 Fold							1.5	1.4	1.2	1.3	1.2	1.8	1.1	23 µM	28 µM	32 µM	1.4	
O=C1NC(=O)C(c2ccccc2)(c2ccccc2)N1 [Phenytoin]	23 Fold	38 Fold	35 Fold	96%	98%	96%	98%	97%	95%	1.8	2.3	2.4	2.2	7.5	12.1	8.5	15 µM	16 µM	23 µM	9.4	Predicted AUC change using HepatoCells (range of lots) (CYP3A4 [3]): 95–98%; RIS values based on enzyme activity (range stated for group of compounds) (CYP3A4 [1]): 0.7–24; Observed % AUC Change (CYP3A4 [5]; [14]): 94%; RIS values based on CYP3A4 mRNA level (range stated for group of compounds) (CYP3A4 mRNA [2]): 0.8–25
CCc1ccc(CCOc2ccc(CC3SC(=O)NC3=O)cc2)nc1 (centres unmarked) [Pioglitazone]	33 Fold	31 Fold	15 Fold	17%	36%	23%	35%	34%	29%	0.12	0.20	0.28	0.2	0.28	0.37	0.21	3.3 µM	2.3 µM	2 µM	0.29	Predicted AUC change using enzyme activity data (range of lots) (CYP3A4 [3]; three lots of HepatoCells): 17–34%; Predicted AUC change using mRNA data (range of lots) (CYP3A4 [3]; three lots of HepatoCells): 29–36%; solubility [9]: insoluble; Observed % AUC Change (CYP3A4 [5]; [14]): 26%
NC(=O)N1c2ccccc2C=Cc2ccccc21 [Carbamazepine]	16 Fold	10 Fold	14 Fold	92%	86%	92%	87%	87%	95%	0.67	0.8	0.9	0.8	0.76	0.77	1.3	108 µM	65 µM	53 µM	0.9	RIS values based on enzyme activity (range stated for group of compounds) (CYP3A4 [1]): 0.7–24; Observed % AUC Change (CYP3A4 [5]; [14]): 94%; RIS values based on CYP3A4 mRNA level (range stated for group of compounds) (CYP3A4 mRNA [2]): 0.8–25
CN(C)C(=O)CCSC(SCCC(=O)O)c1cccc(/C=C/c2ccc3ccc(Cl)cc3n2)c1 (centres unmarked) [MK571]																					effect on CDFDA staining of bile canaliculi (MRP2): inhibited the specific CDFDA staining of bile canaliculi
C=C[C@H]1C[N@@]2CC[C@H]1C[C@@H]2[C@@H](O)c1ccnc2ccc(OC)cc12 [Quinidine]																					CYP3A4 mRNA induction over solvent vehicle control (CYP3A4 mRNA [4]): one- to twofold increase; CYP3A4 enzyme activity induction over solvent vehicle control (CYP3A4 [1]): one- to twofold increase; CYP3A4 enzyme activity induction response (in words) (CYP3A4 [1]): did not cause a concentration-dependent increase
